{"source": "paper PMC6268933", "about": "(Molecules, 2012)", "key": {"[1]": {"test": "DPPH radical scavenging activity (RSA) assay", "format": "biochemical", "conditions": "for IC50: 15 min in the dark at room temperature, 515 nm, mean ± SD (n = 3), read-out: DPPH radical scavenging activities (IC50); for average fold higher DPPH scavenging activity compared to compounds 1 to 6: positive controls vs compounds 1 to 6", "description": "The antioxidant activity of all six compounds was determined by the DPPH radical scavenging method according to the previous procedure with modification. Each compound was diluted two-fold in a series of five starting from 5.00 mg/mL. The solution of DPPH in methanol (6 × 10^−5 M) was prepared daily before UV measurements. A 3 mL aliquot of this solution was mixed with 77 μL of the compound solution in a 1-cm path length microcuvette. The mixture was shaken vigorously. The mixtures were then kept in the dark for 15 min at room temperature and the decrease in absorption was measured immediately in a UV-Vis spectrophotometer at 515 nm. The blank solution containing the same amount of methanol and DPPH solution was prepared and its absorption was measured daily. The experiment was carried out in triplicate. AscA and BHT were used as positive controls. The RSA of samples, expressed as percentage inhibition of DPPH, was calculated according to the formula: Inhibition percentage (Ip) = [(AB − AA)/AB] × 100, where AB and AA are the absorbance values—checked after 15 min—of the blank sample and of the tested sample solutions, respectively."}, "[2]": {"test": "β-carotene-linoleic acid (BCLA) assay", "format": "biochemical", "conditions": "bleaching of β-carotene, 450 nm, up to 120 min; mean ± SD (n = 3); read-out: BCLA method (IC50)", "description": "This test was carried out according to the reported method of literature with modification. Approximately 4 mL of a solution of β-carotene in chloroform (1 mg/mL) were pipetted into a flask containing 40 mg of linoleic acid and 400 mg of Tween-40. The chloroform was removed using a rotary evaporator at 40 °C for 5 min, and to the residue, 100 mL of distilled water were added, slowly with vigorous agitation, to form an emulsion. A 96-well micro-titer plate was added with 50 μL of the Part 2.4.1 solution of the test compound and 200 μL of the emulsion, and the absorbance was measured at 450 nm, immediately, against a blank consisting of the emulsion without β-carotene. The plate was allowed to stand at room temperature (20–23 °C), and the absorbance measurements were conducted again at 30 min intervals up to 120 min. All tests were carried out in triplicate. Stable antioxidants of AscA and BHT were used as positive controls. The antioxidant activity (AA) of the test samples was evaluated in terms of bleaching of β-carotene using the formula; AA = [1 − (A0 − At)/(A0' − At')] × 100, where A0 and A0' are the absorbance values measured at zero time of the sample and the blank, respectively, and At and At' are the absorbance measured in the test sample and the blank, respectively, at times up to 120 min."}, "[3]": {"test": "Cytotoxicity on Vero cells by MTT assay", "format": "cell-based", "conditions": "African green monkey (Cercopitheus aethiops)", "description": "The isolated compounds were tested for in-vitro cytotoxicity using Vero cells by 3-(4,5-dimethylthiazol-2-yl)-2,5-diphenyltetrazolium bromide (MTT) assay. The Vero cell line was initiated from kidney of a normal adult African green monkey, Cercopitheus aethiops, obtained from Virology Laboratory, School of Biosciences and Biotechnology, Faculty of Science and Technology, UKM. Vero cells were maintained in DMEM, supplemented with 10% FBS and cultured at 37 °C in a humidified 5% CO2 incubator. The concentration of stock compound solution was 1.0 mg/mL prepared by dissolving 1 mg compound in 50 μL methanol and 950 μL 5% FBS-DMEM. Sonicator was used to emulsify the compounds for 40 min before the two-fold dilutions made in 5% FBS-DMEM to produce a compound solution at concentrations of 0.5, 0.25, 0125 and 0.0625 mg/mL. Briefly, a total of […] of cell suspension with different concentrations were added to each well in the 96-well micro-titer plates. As a positive control, each well from first to third wells was added with cells of 2.5 × 10^5, 1.25 × 10^5 and 0.625 × 10^5 cells/mL. For the negative control (100% cell death, LC100), […] of DMEM without cells were added to the twelfth well. Cells of 2.5 × 10^5 cells/mL were added into the fourth to eleventh wells. The plates were incubated for 48 h at 37 °C with 5% CO2 until a monolayer is formed. […] After the incubation period, MTT (20 μL, 5 mg/mL) was added into each well and the cells incubated for 2 to 4 h, until a purple precipitate was clearly visible under a microscope, the medium together with MTT (190 μL) was aspirated off from the wells, DMSO (100 μL) was added and the plate shaken for 5 min. The absorbance for each well was measured at 540 nm in a micro-titer plate reader and percentage of cell viability (CV) was calculated manually using the formula: CV = [(Abssample − Absnegative control)/(Abscell − Absnegative control)] × 100."}, "[4]": {"conditions": "cited from earlier work"}, "[5]": {"conditions": "Vero cells, MTT, 24 h incubation, read-out: Cytotoxic activities on Vero cell lines (LC50)"}, "[6]": {"conditions": "from V. chunganensis, read-out: DPPH RSA"}, "[7]": {"conditions": "from Parthenocissus laetevirens, read-out: DPPH RSA antioxidant activities"}, "[8]": {"conditions": "from V. wilsonae, read-out: antioxidant activities towards DPPH, IC50"}}, "note": "Where two headings read alike, the source gives them in different places."}
{"molecule": "Oc1ccc([C@@H]2c3c(O)cc(O)cc3[C@@H]3c4c(cc(O)cc4[C@@H]2O)O[C@H]3c2ccc(O)cc2)cc1", "note": "(relative stereo) [Compound 1, acuminatol]", "values": [{"measurement": "IC50", "setting": "[1]", "result": "10060 ± 50", "unit": "µM"}, {"measurement": "IC50", "setting": "[2]", "result": "180 ± 10", "unit": "µM"}, {"measurement": "CC50 at 24 h", "setting": "[3]; [5]", "result": 400, "unit": "µM"}]}
{"molecule": "O=C1O[C@H]([C@@H](O)CO)C(O)=C1O", "note": "[AscA, ascorbic acid, reference compound]", "values": [{"measurement": "IC50", "setting": "[1]", "result": 680, "unit": "µM"}, {"measurement": "average fold higher DPPH scavenging activity compared to compounds 1 to 6", "setting": "[1]", "result": 6, "unit": "fold"}, {"measurement": "IC50", "setting": "[2]", "result": "25200 ± 1740", "unit": "µM"}]}
{"molecule": "Cc1cc(C(C)(C)C)c(O)c(C(C)(C)C)c1", "note": "[BHT, butylated hydroxytoluene, reference compound]", "values": [{"measurement": "IC50", "setting": "[1]", "result": "950 ± 50", "unit": "µM"}, {"measurement": "average fold higher DPPH scavenging activity compared to compounds 1 to 6", "setting": "[1]", "result": 4, "unit": "fold"}, {"measurement": "IC50", "setting": "[2]", "result": 90, "unit": "µM"}]}
{"molecule": "O=C1O[C@@H]2[C@H](O)COC23O[C@@H](c2ccc(O)cc2)[C@H](c2cc(O)cc4c2[C@@H](c2cc(O)cc(O)c2)[C@H](c2ccc(O)cc2)O4)[C@@]13O", "note": "(stereo partly shown) [Compound 2, laevifonol]", "values": [{"measurement": "IC50", "setting": "[1]", "result": "4210 ± 230", "unit": "µM"}, {"measurement": "IC50", "setting": "[2]", "result": "220 ± 20", "unit": "µM"}, {"measurement": "CC50 at 24 h", "setting": "[3]; [5]", "result": 597, "unit": "µM"}]}
{"molecule": "Oc1ccc([C@H]2Oc3cc(O)cc4c3[C@@H]2c2cc(O)cc3c2[C@@H](c2cc(O)cc5c2[C@@H]4[C@H](c2ccc(O)cc2)O5)[C@H](c2ccc(O)cc2)O3)cc1", "note": "[Compound 3, (+)-α-viniferin]", "values": [{"measurement": "IC50", "setting": "[1]", "result": "6290 ± 50", "unit": "µM"}, {"measurement": "IC50", "setting": "[2]", "result": 180, "unit": "µM"}, {"measurement": "CC50 at 24 h", "setting": "[3]; [5]", "result": 208, "unit": "µM"}]}
{"molecule": "O=C1C=CC23C(C1)Oc1cc(O)cc4c1C2C(c1cc(O)cc2c1C4C(c1ccc(O)cc1)O2)C(c1cc(O)cc2c1C(c1cc(O)cc(O)c1)C(c1ccc(O)cc1)O2)C3c1ccc(O)cc1", "note": "(stereo not shown) [Compound 4, shoreaketone]", "values": [{"measurement": "IC50", "setting": "[1]", "result": "1540 ± 100", "unit": "µM"}, {"measurement": "IC50", "setting": "[2]", "result": 110, "unit": "µM"}, {"measurement": "CC50 at 24 h", "setting": "[3]; [5]", "result": 830, "unit": "µM"}]}
{"molecule": "Oc1ccc([C@@H]2c3c(O)cc(O)cc3[C@@H]3c4c(cc(O)c5c4[C@@H]2[C@H](c2ccc(O)cc2)[C@H]5c2cc(O)cc4c2[C@@H](c2cc(O)cc(O)c2)[C@H](c2ccc(O)cc2)O4)O[C@H]3c2ccc(O)cc2)cc1", "note": "[Compound 5, vaticanol B]", "values": [{"measurement": "IC50", "setting": "[1]", "result": "840 ± 20", "unit": "µM"}, {"measurement": "IC50", "setting": "[2]", "result": "100 ± 10", "unit": "µM"}, {"measurement": "CC50 at 24 h", "setting": "[3]; [5]", "result": 759, "unit": "µM"}]}
{"molecule": "Oc1ccc([C@H]2c3c(O)cc(O)cc3[C@H]3c4c(cc(O)cc4[C@@H]2[C@H]2c4cc(O)cc5c4[C@H](c4cc(O)cc(O)c4[C@@H]2c2ccc(O)cc2)[C@@H](c2ccc(O)cc2)O5)O[C@@H]3c2ccc(O)cc2)cc1", "note": "[Compound 6, (−)-hopeaphenol]", "values": [{"measurement": "IC50", "setting": "[1]", "result": "2780 ± 160", "unit": "µM"}, {"measurement": "IC50", "setting": "[2]", "result": "100 ± 10", "unit": "µM"}, {"measurement": "CC50 at 24 h", "setting": "[3]", "result": 161, "unit": "µM"}]}
{"molecule": "Oc1ccc(/C=C/c2c3c(cc4c2[C@H](c2cc(O)c(Cc5c(O)cc(O)cc5[C@@H]5c6c(O)cc7c8c6[C@H]([C@@H](c6ccc(O)cc6)c6c(O)cc(O)cc6[C@@H]8[C@@H](c6ccc(O)cc6)O7)[C@H]5c5ccc(O)cc5)c(O)c2)[C@@H](c2ccc(O)cc2)O4)O[C@H](c2ccc(O)cc2)[C@H]3c2cc(O)cc(O)c2)cc1", "note": "[chunganenol]", "values": [{"measurement": "IC50", "setting": "[4]; [6]", "result": 37.3, "unit": "µM"}]}
{"molecule": "Oc1ccc([C@H]2c3c(O)cc(O)c4c3c(cc3ccc(O)cc34)[C@@H]2c2cc(O)cc(O)c2)cc1", "note": "[laetevirenol A]", "values": [{"measurement": "IC50", "setting": "[4]; [7]", "result": 38.4, "unit": "µM"}]}
{"molecule": "Oc1cc(O)cc(/C=C/c2ccc(O)c(O)c2)c1", "note": "[piceatanol]", "values": [{"measurement": "IC50", "setting": "[4]; from Cyperus longus, read-out: DPPH RSA IC50", "result": 11, "unit": "µM"}]}
{"molecule": "C[C@H](O)/C=C/[C@@]1(O)[C@H](C)[C@H](O)[C@@H](O)CC1(C)C", "note": "[wilsonol A]", "values": [{"measurement": "IC50", "setting": "[4]; [8]", "result": 104, "unit": "µM"}]}
{"molecule": "C[C@@H]1[C@H](O)[C@@H](O)CC(C)(C)[C@@]1(O)/C=C/[C@@H](C)O", "note": "[wilsonol B]", "values": [{"measurement": "IC50", "setting": "[4]; [8]", "result": 195, "unit": "µM"}]}
{"molecule": "CC(=O)/C=C/[C@@]1(O)[C@H](C)[C@H](O)[C@@H](O)CC1(C)C", "note": "[wilsonol C]", "values": [{"measurement": "IC50", "setting": "[4]; [8]", "result": 182, "unit": "µM"}]}
{"molecule": "(+)-amurensin G", "values": [{"measurement": "IC50", "setting": "[4]; [6]", "result": 138, "unit": "µM"}]}
{"molecule": "(+)-gnetin H", "values": [{"measurement": "IC50", "setting": "[4]; [6]", "result": 251, "unit": "µM"}]}
{"molecule": "diviniferin B", "values": [{"measurement": "IC50", "setting": "[4]; [8]", "result": 175, "unit": "µM"}]}
{"molecule": "laetevirenol B", "values": [{"measurement": "IC50", "setting": "[4]; [7]", "result": 37.3, "unit": "µM"}]}
{"molecule": "laetevirenol C", "values": [{"measurement": "IC50", "setting": "[4]; [7]", "result": 111, "unit": "µM"}]}
{"molecule": "laetevirenol D", "values": [{"measurement": "IC50", "setting": "[4]; [7]", "result": 128, "unit": "µM"}]}
{"molecule": "laetevirenol E", "values": [{"measurement": "IC50", "setting": "[4]; [7]", "result": 158, "unit": "µM"}]}
